Test results taken from US7993687B2, “Compositions and methods for management of diabetes” (priority 2006, dated 2011).
“Also recorded” adds a separate entry of the source.

Legend:
[1] = system: Insulin receptor (Tyr1146); test: Western blot of insulin receptor phosphorylation in H4IIE cells; type: cell-based, rat; details: 6 minutes
Method: Tissue culture media, antibiotics, fetal bovine serum (FBS) and Nunc tissue culture plates were purchased from Invitrogen Canada Inc. (Burlington, Ontario, Canada, L7P 1A1). Insulin (Sigma-Aldrich Canada Ltd., Oakville, Ontario, Canada, L6H 6J8) was dissolved in water and added directly to cells at a concentration of 250 nM unless otherwise indicated. The BWE was prepared and analyzed as described in Example 1. Two μL of the BWE were added directly to cells unless otherwise indicated. This amount was chosen on the basis of equivalence to insulin. Myo-inositol (Sigma-Aldrich Canada Ltd.) and D-chiro-inositol (Industrial Research Ltd., Wellington, New Zealand) were dissolved in water at an equal concentration to the amounts present in the BWE (Table 3) and 2 μL of each solution (0.1% v/v final concentration) was added directly to cells.
Rat H4IIE hepatoma cells (American Type Culture Collection, CRL 1548) were cultured following the method disclosed by Yau et al., (1998, Eur. J. Biochem. 253: 91-1). The H4IIE cells were maintained in α-modified Eagle's media containing 10% FBS, 2 mM glutamine, 25 μg·mL^−1 streptomycin and 25 units·mL^−1 penicillin. Cells were plated and grown to 70% confluence. All cells were placed into serum-free medium for 72 h before addition of stimulating agents to ensure entry into a quiescent state. […]
Cellular protein extracts were prepared by addition of 200 μL 2×SDS/gel loading buffer (0.125 M Tris pH 6.8, 2% SDS, 10% glycerol) to H4IIE cells in 12-well culture dishes. The samples were briefly sonicated, and protein content measured using the BCA protein assay kit. […] HRP was detected using the ECL chemiluminescent system after the membranes had been washed four times.
Quantification of data obtained on film (Kodak X-omat) was accomplished with a GS800 imaging densitometer (Bio-Rad Laboratories) under nonsaturating conditions with local background subtraction. […]

[2] = system: H4IIE cells; test: 3H-deoxyglucose uptake by H4IIE cells; type: cell-based, rat; details: for 3H-deoxy-glucose uptake (basal) by H4IIE cells: insulin 10^-6 M, 2 μL (0.4% v/v) of BWE, D-CI or MI, versus untreated cells
Method: Tissue culture media, antibiotics, fetal bovine serum (FBS) and Nunc tissue culture plates were purchased from Gibco-BRL (division of Invitrogen Canada Inc.). Insulin (Sigma-Aldrich Canada Ltd.) was dissolved in water and added directly to cells at a final concentration of 10^−6 M. The buckwheat extract was prepared and analyzed as in Example 1. Two μL of the buckwheat extract were added directly to cells unless otherwise indicated. Myo-inositol (Sigma Aldrich Canada Ltd.) and D-chiro-inositol (Industrial Research Ltd.) were dissolved in water at an equal concentration to the amounts present in the BWE (Table 3) and 2 μL of each solution was added directly to cells.
Rat H4IIE hepatoma cells (American Type Culture Collection, CRL 1548) were cultured as described in Example 3. Briefly, cells were maintained in α-modified Eagle's media containing 10% FBS, 2 mM glutamine, 50 μg·mL^−1 streptomycin and 50 μg·mL^−1 penicillin. Cells were plated and grown to 70% confluence. All cells were placed into serum-free medium for 72 h before addition of stimulating agents to ensure entry into a quiescent state.
^3H-deoxyglucose uptake was assayed using the method disclosed by Harrison et al. (1990, J. Biol. Chem. 265(10):5793-5801). Quiescent H4IIE cells, in 24-well culture dishes containing 1 mL serum-free medium, were washed three times with physiological salt solution (PSS) ([…], pH 7.4). Cells were placed into 0.5 mL PSS and pre-incubated with inhibitors for 10 minutes prior to the 20 minute stimulation with treatments (insulin, BWE, D-CI, MI). For all experiments, insulin was added at a concentration of 10^−6 M whereas 2 μL volumes of the BWE, D-CI, or MI (0.4% v/v final concentration) were added to cells unless otherwise indicated in figures. Sugar uptake was initiated by the addition of ^3H-deoxyglucose to a final assay concentration of 0.1 mM glucose (1 mCi/mL) and the cells were subsequently incubated for 5 minutes at 37° C. After two rapid washes with ice-cold PSS (0.5-1 mL/well), the cells were solubilized with 0.4 mL of 0.1% SDS, and ^3H was detected in 3 mL of EcoLume scintillant (MP Biomedicals Inc., Costa Mesa, Calif., USA, 92626).
Statistical significance between treatments was determined by one-way ANOVA and by Duncan's multiple range test for means testing (SAS v.9.1, SAS Institute Inc., Cary, N.C.). […] Data are expressed as the mean±SE.
Since insulin has the same effect, we compared the ability of BWE, insulin and two insulin-mimetic compounds (D-CI and MI) to stimulate glucose uptake by H4IIE hepatoma cells. […] Radio-labelled deoxyglucose was added to the medium and glucose uptake was determined by the detection of ^3H in cells.
Fractions (˜1.0 ml) from each solvent extraction were collected and assayed for their effects on MAPK activation as described in Example 3. The effects of selected fractions, alone or in combination with insulin, on the uptake of labelled glucose were assessed following the methods described in Example 4. […] The effects of the solvent fractions on H4IIE cells were assessed with 20-min exposure periods after which, sugar uptake was initiated by the addition of ^3H-deoxyglucose to a final assay concentration of 0.1 mM glucose (1 mCi/mL) and the cells were subsequently incubated for 5 minutes at 37° C. After two rapid washes with ice-cold PSS (0.5-1 mL/well), the cells were solubilized with 0.4 mL of 0.1% SDS, and ^3H was detected in 3 mL of EcoLume scintillant. […]

Compound | phosphorylation of InsR [1] | 3H-deoxy-glucose uptake (basal) by H4IIE cells [2] | effect of the inhibitor on insulin-stimulated glucose uptake (FIG. 23) ([2]; H4IIE cells, pre-incubated with inhibitor, then insulin)
OC1C(O)C(O)C(O)C(O)C1O [D-CI, D-chiro-inositol] | do not provide comparable stimulation | stimulated glucose uptake | 
O[C@H]1[C@H](O)[C@@H](O)[C@H](O)[C@@H](O)[C@H]1O [MI, myo-inositol] | do not provide comparable stimulation | not statistically different from untreated cells | 
insulin: Insulin (Sigma-Aldrich) dissolved in water, positive comparator | phosphorylated in response to insulin; also recorded: stimulated by insulin only | stimulated glucose uptake | 
COc1cccc(-c2cc(=O)c3ccccc3o2)c1N [PD98059] |  |  | decreased insulin-stimulated glucose uptake
